According to patent publication US9023864B2, “Indole derivatives as CRTH2 receptor antagonists” (Merck Sharp & Dohme Corp., priority 2009, dated 2015):
pKi: −log10 of the molar value.

target: T1, hCRTH2 (Homo sapiens, UniProt Q9Y5Y4); test: Radioligand binding assay ([3H]PGD2 competition, membranes from HEK-hCRTH2 cell line); conditions: 0.7 nM [3H]PGD2, membrane protein from HEK-hCRTH2 cell line, 60 min at room temperature; values given as ranges
T1 construct: expressed in transfected cells; host or cells: HEK cell line expressing hCRTH2 (HEK-hCRTH2); membranes
T1 sequence (Q9Y5Y4 1-395): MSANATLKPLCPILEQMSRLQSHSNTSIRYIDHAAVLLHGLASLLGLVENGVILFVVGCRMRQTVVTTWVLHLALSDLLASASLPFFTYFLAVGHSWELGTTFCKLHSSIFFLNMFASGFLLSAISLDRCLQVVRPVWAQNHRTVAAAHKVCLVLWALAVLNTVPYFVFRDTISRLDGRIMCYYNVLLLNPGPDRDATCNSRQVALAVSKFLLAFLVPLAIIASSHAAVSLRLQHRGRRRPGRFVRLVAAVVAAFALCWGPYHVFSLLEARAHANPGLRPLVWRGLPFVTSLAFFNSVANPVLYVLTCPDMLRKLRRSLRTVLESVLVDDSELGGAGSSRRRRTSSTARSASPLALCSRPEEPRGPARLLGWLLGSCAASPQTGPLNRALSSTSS
Procedure: Radioligand Binding Assay.
Radioligand binding assays were performed at room temperature in 10 mM HEPES/KOH pH 7.4, 1 mM EDTA containing 10 mM MnCl2 and 0.7 nM [^3H]PGD2 (NEN, 171 Ci mmol^−1), in a final volume of 0.2 ml. Competing ligands were diluted in dimethylsulfoxide (Me2SO) that was kept constant at 1% (v/v) of the final incubation volume. The reaction was initiated by the addition of 8-20 μg of membrane protein prepared from a HEK-hCRTH2 cell line. Total and non-specific binding were determined in the absence and the presence of 10 μM PGD2, respectively. Under these conditions, specific binding (total minus non-specific) of the radioligand to the receptor reached equilibrium within 50 min and was stable up to 180 min. The reaction was routinely conducted for 60 min at room temperature and terminated by rapid filtration through prewetted Unifilters GF/C (Packard), using a Tomtec MachIII semi-automated harvester (for HEK-hCRTH2). The filters were then washed with 4 ml of the same buffer and residual radioligand bound to the filter was determined by liquid scintillation counting following equilibration in 25 μl Ultima Gold F™ (Unifilter) (Packard). The Ki (in nM) values for representative compounds of the present invention are as follows: ≦5: Examples 3.1, 5.1, 6.1, 7.1, 8.1/8A, 9.1, 26, 27.1, 28.1, 29.1, 30, 31.1, 31.3, 32.1, 32.4, 33.1, 34.1, 36.1, 38.1, 39, 40, 41; >5 and ≦10: Examples, 4, 5.3, 29.2; >10 and ≦50: Examples 1, 10, 14, 21, 22, 25, 31.4, 32.3, 35, 36.2, 37; >50 and ≦100: Examples 2, 5.4, 6.2, 27.2, 28.2; >100: Examples 3.2, 5.2, 7.2, 8.2, 9.2, 11, 12, 13, 15, 16, 17, 18, 19, 20, 23, 24, 31.2, 32.2, 33.2, 34.2, 38.2.

| SMILES | pKi |
| --- | --- |
| O=C(O)Cc1c2n(c3ccccc13)CC(n1nncc1C1(c3ccccc3)CCCC1)CC2 (single isomer, unassigned) [Example 6.1, {7-[5-(1-Phenyl-cyclopentyl)-[1,2,3]triazol-1-yl]-6,7,8,9-tetrahydropyrido[1,2-α]indol-10-yl}-acetic acid] | ≥ 8.30 |
| CC(c1ccccc1)c1cnnn1C1CCc2c(CC(=O)O)c3ccccc3n2C1 (single isomer, unassigned) [Example 29.1] | ≥ 8.30 |
| C=C(c1ccc(F)cc1)c1cnnn1C1CCc2c(CC(=O)O)c3ccccc3n2C1 (stereo not drawn) [Example 26, (7-{5-[1-(4-Fluoro-phenyl)-vinyl]-[1,2,3]triazol-1-yl}-6,7,8,9-tetrahydropyrido[1,2-α]indol-10-yl)-acetic acid] | ≥ 8.30 |
| O=C(O)Cn1c2c(c3ccccc31)CC(n1nncc1Cc1ccccc1)CC2 (single isomer, unassigned) [Example 9.2, [3-(5-Benzyl-[1,2,3]triazol-1-yl)-1,2,3,4-tetrahydro-carbazol-9-yl]-acetic acid] | < 7.00 |
| CC(O)(c1ccc(F)cc1)c1cnnn1C1CCc2c(CC(=O)O)c3ccccc3n2C1 (single isomer, unassigned) [Example 5.3, (7-{5-[1-(4-Fluoro-phenyl)-1-hydroxy-ethyl]-[1,2,3]triazol-1-yl}-6,7,8,9-tetrahydropyrido[1,2-α]indol-10-yl)-acetic acid] | 8.00 to 8.30 |
| O=C(O)Cc1c2n(c3c(F)cccc13)CC(n1nncc1Cc1ccc(Cl)cc1)CC2 (single isomer, unassigned) [Example 34.2, {7-[5-(4-chlorobenzyl)-1H-1,2,3-triazol-1-yl]-4-fluoro-6,7,8,9-tetrahydropyrido[1,2-a]indol-10-yl}acetic acid] | < 7.00 |
| O=C(O)Cc1c2n(c3ccccc13)CC(n1nncc1Cc1ccc(F)cc1)CC2 (single isomer, unassigned) [Example 28.2] | 7.00 to 7.30 |
| O=C(O)Cc1c2n(c3ccccc13)CC(n1nncc1C(O)(c1ccccc1)C(F)(F)F)CC2 (centres unmarked) [Example 35, {7-[5-(2,2,2-trifluoro-1-hydroxy-1-phenyl-ethyl)-1H-1,2,3-triazol-1-yl]-6,7,8,9-tetrahydropyrido[1,2-a]indol-10-yl}acetic acid] | 7.30 to 8.00 |
| O=C(O)Cc1c2n(c3c(F)cccc13)CC(n1nncc1Cc1ccc(Cl)cc1)CC2 (single isomer, unassigned) [Example 34.1, {7-[5-(4-chlorobenzyl)-1H-1,2,3-triazol-1-yl]-4-fluoro-6,7,8,9-tetrahydropyrido[1,2-a]indol-10-yl}acetic acid] | ≥ 8.30 |
| CC(O)(c1ccc(F)cc1)c1cnnn1C1CCc2c(CC(=O)O)c3ccccc3n2C1 (single isomer, unassigned) [Example 5.1, (7-{5-[1-(4-Fluoro-phenyl)-1-hydroxy-ethyl]-[1,2,3]triazol-1-yl}-6,7,8,9-tetrahydropyrido[1,2-α]indol-10-yl)-acetic acid] | ≥ 8.30 |
| Cc1nnn(C2CCc3c(CC(=O)O)c4cccc(F)c4n3C2)c1Cc1ccc(F)cc1 (single isomer, unassigned) [Example 36.1, {4-Fluoro-7-[5-(4-fluorobenzyl)-4-methyl-1H-1,2,3-triazol-1-yl]-6,7,8,9-tetrahydropyrido[1,2-a]indol-10-yl}acetic acid] | ≥ 8.30 |
| CC1C(n2nncc2Cc2ccc(F)cc2)CCc2c(CC(=O)O)c3cccc(F)c3n21 (single isomer, unassigned) [Example 38.2, {4-Fluoro-7-[5-(4-fluorobenzyl)-1H-1,2,3-triazol-1-yl]-6-methyl-6,7,8,9-tetrahydropyrido[1,2-α]indol-10-yl}acetic acid] | < 7.00 |
| O=C(O)Cc1c2n(c3c(F)cccc13)CC(n1nncc1Cc1ccc(F)c(F)c1)CC2 (single isomer, unassigned) [Example 33.1, {7-[5-(3,4-difluorobenzyl)-1H-1,2,3-triazol-1-yl]-4-fluoro-6,7,8,9-tetrahydropyrido[1,2-a]-indol-10-yl}acetic acid] | ≥ 8.30 |
| CC(O)(c1ccc(F)cc1)c1cnnn1C1CCc2c(CC(=O)O)c3cccc(F)c3n2C1 (single isomer, unassigned) [Example 31.4] | 7.30 to 8.00 |
| O=C(O)Cc1c2n(c3ccccc13)CC(n1nncc1C1(c3ccccc3)CCCC1)CC2 (single isomer, unassigned) [Example 6.2, {7-[5-(1-Phenyl-cyclopentyl)-[1,2,3]triazol-1-yl]-6,7,8,9-tetrahydropyrido[1,2-α]indol-10-yl}-acetic acid] | 7.00 to 7.30 |
| O=C(O)Cc1c2n(c3ccccc13)CC(n1nncc1C1CCCCC1)CC2 (stereo not drawn) [Example 24, [7-(5-Cyclohexyl-[1,2,3]triazol-1-yl)-6,7,8,9-tetrahydropyrido[1,2-α]indol-10-yl]-acetic acid] | < 7.00 |
| O=C(O)Cc1c2n(c3ccccc13)CC(n1nncc1C1(O)c3ccccc3-c3ccccc31)CC2 (stereo not drawn) [Example 25, {7-[5-(9-Hydroxy-9H-fluoren-9-yl)-[1,2,3]triazol-1-yl]-6,7,8,9-tetrahydropyrido[1,2-α]indol-10-yl}-acetic acid] | 7.30 to 8.00 |
| O=C(O)Cc1c2n(c3ccccc13)CC(n1cc(Cc3ccccc3)nn1)CC2 (stereo not drawn) [Example 1, [7-(4-Benzyl-[1,2,3]triazol-1-yl)-6,7,8,9-tetrahydropyrido[1,2-α]indol-10-yl]-acetic acid] | 7.30 to 8.00 |
| CC(c1ccccc1)c1cnnn1C1CCc2c(CC(=O)O)c3cccc(F)c3n2C1 (single isomer, unassigned) [Example 32.2, {4-Fluoro-7-[5-(1-phenyl-ethyl)-[1,2,3]triazol-1-yl]-6,7,8,9-tetrahydropyrido[1,2-α]indol-10-yl}-acetic acid] | < 7.00 |
| O=C(O)Cc1c2n(c3ccccc13)CC(n1nncc1Cc1ccc(F)cc1)CC2 (single isomer, unassigned) [Example 28.1] | ≥ 8.30 |
| CC(O)(c1ccc(F)cc1)c1cnnn1C1CCc2c(CC(=O)O)c3cccc(F)c3n2C1 (single isomer, unassigned) [Example 31.2] | < 7.00 |
| CC(c1ccccc1)c1cnnn1[C@@H]1CCc2c(CC(=O)O)c3ccccc3n2C1 (single isomer, unassigned) [Example 29.2] | 8.00 to 8.30 |
| CC1C(n2nncc2Cc2ccc(F)cc2)CCc2c(CC(=O)O)c3cccc(F)c3n21 (single isomer, unassigned) [Example 38.1, {4-Fluoro-7-[5-(4-fluorobenzyl)-1H-1,2,3-triazol-1-yl]-6-methyl-6,7,8,9-tetrahydropyrido[1,2-α]indol-10-yl}acetic acid] | ≥ 8.30 |
| CC(O)(c1ccc(F)cc1)c1cnnn1C1CCc2c(CC(=O)O)c3ccccc3n2C1 (single isomer, unassigned) [Example 5.2, (7-{5-[1-(4-Fluoro-phenyl)-1-hydroxy-ethyl]-[1,2,3]triazol-1-yl}-6,7,8,9-tetrahydropyrido[1,2-α]indol-10-yl)-acetic acid] | < 7.00 |
| O=C(O)Cc1c2n(c3ccccc13)CC(n1cc(-c3ccc(F)cc3)nn1)CC2 (stereo not drawn) [Example 10, {7-[4-(4-Fluoro-phenyl)-[1,2,3]triazol-1-yl]-6,7,8,9-tetrahydropyrido[1,2-α]indol-10-yl}-acetic acid] | 7.30 to 8.00 |
| CC(O)(c1ccc(F)cc1)c1cnnn1C1CCc2c(CC(=O)O)c3cccc(F)c3n2C1 (single isomer, unassigned) [Example 31.3] | ≥ 8.30 |
